# Results published in patent US6300368A, “Anilide derivatives and antiarrhythmic agents containing the same” (priority 1998, dated 2001).
# Where a name gives a salt, the structure may show the parent alone.
# Test system: aconitin-induced atrial fibrillation
# Assay: Aconitin-induced atrial fibrillation model in anaesthetized dogs (Pharmacological Trial 1)
# Format: in vivo, dog
# Details: Canis lupus familiaris; intravenous, anesthetized dogs, as hydrochloride; read-out: minimum dose level which suppresses atrial fibrillation
# Protocol: Pharmacological Trial 1: Evaluation of effectiveness in aconitin-induced atrial fibrillation model (dogs) Evaluation was performed according to K. Hashimoto (Jpn. J. Pharmacol., Vol. 46, 349-358, 1988) as follows:
# Method: Dog was anesthetized and thoracotomy was made. Persistent atrial fibrillation was induced by placing a piece of filter paper impregnated with 0.5% aconitin solution (20 to 30 μl) on the right atrium. […] Onset and suppression of atrial fibrillation were monitored electrocardiographically by placing Ag--AgCl bipolar electrode on the right atrial auricle.
# Results: Each compound in Examples 1 to 87 suppressed atrial fibrillation at least following dose level (all compounds were used in the form of hydrochloride).
row,Compound,minimal effective dose [mg/kg]
1,"CCOCCNCCOc1ccc(NC(=O)c2ccccc2NS(C)(=O)=O)cc1 [Example 47, 4'-[2-[(2-Ethoxyethyl)amino]ethoxy]-2-(methanesulfonamido)benzanilide]",3
2,"CCNCCOc1ccc(NC(=O)c2ccccc2NS(C)(=O)=O)cc1.Cl [Example 21, 4'-[(2-Ethylamino)ethoxy]-2-(methanesulfonamido) benzanilide Hydrochloride]",10
3,"CCCNCCOc1ccc(NC(=O)C2CCOCC2)cc1.Cl [Example 28, 4'-[2-(Propylamino)ethoxy]-3,4,5,6-tetrahydro-2H-pyran-4-carboxanilide Hydrochloride]",3
4,"Cc1cc(NC(=O)c2ccccc2NS(C)(=O)=O)ccc1OCCNC(C)C.Cl [Example 75, 4'-[2-(Isopropylamino)ethoxy]-2-methanesulfonamido-3'-methylbenzanilide Hydrochloride]",10
5,"COCCCNCCOc1ccc(NC(=O)c2ccccc2NS(C)(=O)=O)cc1.Cl [Example 49, 2-Methanesulfonamido-4'-[2-[(3-methoxypropyl)amino]ethoxy]benzanilide Hydrochloride]",10
6,"CC(C)NCCOc1ccc(NC(=O)C2CCOCC2)cc1.Cl [Example 34, 4'-[2-(Isopropylamino)ethoxy]-3,4,5,6-tetrahydro-2H-pyran-4-carboxanilide Hydrochloride]",3
7,"O=C(Nc1ccc(OCCNC2CC2)cc1)C1CCOCC1 [Example 52, 4'-[2-(Cyclopropylamino)ethoxy]-3,4,5,6-tetrahydro-2H-pyran-4-carboxanilideHydrochloride]",3
8,"CC(C)(C)NCCOc1ccc(NC(=O)c2ccccc2NS(C)(=O)=O)cc1 [Example 40, 2-Methanesulfonamido-4'-[2-(tert-butylamino)ethoxy]benzanilide]",0.3
9,"COCCC(=O)Nc1ccc(OCCNC(C)C)cc1C [Example 71, 4'-[2-(Isopropylamino)ethoxy]-3-methoxy-2'-methylpropananilide]",3
10,"Cc1cccc(C)c1C(=O)Nc1ccc(OCCN2CCOCC2)cc1 [Example 19, 2,6-Dimethyl-4'-(2morpholinoethoxy)benzanilide]",3
11,"CCCCNCCOc1ccc(NC(=O)c2c(OC)cccc2OC)cc1 [Example 37, 4'-[2-(Butylamino)ethoxy]-2,6-dimethoxybenzanilide]",3
12,"Cc1cc(OCCNC(C)C)ccc1NC(=O)c1ccccc1NS(C)(=O)=O.Cl [Example 70, 4'-[2-(Isopropylamino)ethoxy]-2-methanesulfonamido-2'-methylbenzanilide Hydrochloride]",3
13,"Cc1cc(NC(=O)c2ccccc2NS(C)(=O)=O)cc(C)c1OCCNC(C)C.Cl [Example 6, 4'-[2-(isopropylamino)ethoxy]-2-methanesulfonamido-3',5'-dimethylbenzanilide Hydrochloride]",10
14,"COc1cccc(OC)c1C(=O)Nc1ccc(OCCNC(C)(C)C)cc1 [Example 39, 2,6-Dimethoxy-4'-[2-(tert-butylamino)ethoxy]benzanilide]",10
15,"CCNCCOc1c(C)cc(NC(=O)c2ccccc2NS(C)(=O)=O)cc1C.Cl [Example 80, 4'-[2-(Ethylamino)ethoxy]-2-methanesulfonamido-3',5'-dimethylbenzanilide Hydrochloride]",3
16,"COc1cc(NC(=O)c2ccoc2)ccc1OCCNC(C)C.Cl [Example 60, 4'-[2-(Isopropylamino)ethoxy]-3'-methoxy-3-furanilide Hydrochloride]",10
17,"COc1cccc(OC)c1C(=O)Nc1ccc(OCCNC(C)C)cc1C.Cl [Example 69, 4'-[2-(Isopropylamino)ethoxy]-2,6-dimethoxy-2'-methyl benzanilide Hydrochloride]",3
18,"CC(C)NCCOc1ccc(NC(=O)c2ccccc2S(C)(=O)=O)cc1NS(C)(=O)=O.Cl [Example 5, 4'-[2-(isopropylamino)ethoxy]-3'-methanesulfonamido-2-(methanesulfonyl)benzanilide Hydrochloride]",10
19,"COc1cccc(OC)c1C(=O)Nc1ccc(OCCN2CCCCC2)cc1 [Example 18, 2,6-Dimethoxy-4'-(2-piperidinoethoxy)benzanilide]",10
20,"COc1cc(NC(=O)c2c(OC)cccc2OC)ccc1OCCNC1CCCC1.Cl [Example 62, 4'-[2-(Cyclopentylamino)ethoxy]-2,6-dimethoxy-3'-methoxybenzanilide Hydrochloride]",10
21,"CC(C)NCCOc1ccc(NC(=O)C2CCOC2)cc1.Cl (centres unmarked) [Example 33, 4'-[2-(Isopropylamino)ethoxy]-2,3,4,5-tetrahydro-3-furanilide Hydrochloride]",10
22,"COCCC(=O)Nc1cc(C)c(OCCNC(C)C)c(C)c1.Cl [Example 86, 4'-[2-(Isopropylamino)ethoxy]-3-methoxy-3',5'-dimethyl propananilide Hydrochloride]",3

row,Compound,minimal effective dose [mg/kg]
1,"Cc1cccc(C)c1C(=O)Nc1ccc(OCCNC(C)C)cc1 [Example 31, 4'-[2-(Isopropylamino)ethoxy]-2,6-dimethylbenzanilide]",10
2,"CC(C)NCCOc1ccc(NC(=O)c2ccoc2)cc1NS(C)(=O)=O.Cl [Example 67, 4'-[2-(Isopropylamino)ethoxy]-3'-methanesulfonamido-3-furanilide Hydrochloride]",10
3,"CCN(CC)CCOc1ccc(NC(=O)c2c(OC)cccc2OC)cc1OC [Example 63, 4'-[2-(Diethylamino)ethoxy]-2,6-dimethoxy-3-methoxybenzanilide]",10
4,"COc1cccc(OC)c1C(=O)Nc1ccc(OCCNC2CCCCC2)cc1 [Example 55, 4'-[2-(Cyclohexylamino)ethoxy]-2,6-dimethoxybenzanilide]",0.3
5,"COc1cccc(OC)c1C(=O)Nc1ccc(OCCN2CCCC2)cc1 [Example 16, 2,6-Dimethoxy-4'-[2-(1-pyrrolidinyl)ethoxy]benzanilide]",10
6,"CCNCCOc1ccc(NC(=O)C2CCOCC2)cc1.Cl [Example 3, 4'-[2-(ethylamino)ethoxy]-3,4,5,6-tetrahydro-2H-pyran-4-carboxanilide Hydrochloride]",10
7,"COCCC(=O)Nc1ccc(OCCNC(C)C)c(OC)c1 [Example 57, 4'-[2-(Isopropylamino)ethoxy]-3-methoxy-3-methoxypropananilide]",10
8,"COc1cc(NC(=O)c2ccccc2NS(C)(=O)=O)ccc1OCCNC(C)C [Example 58, 4'-[2-(Isopropylamino)ethoxy]-2-meth anesulfonamido-3'-methoxybenzanilide]",10
9,"COc1cccc(OC)c1C(=O)Nc1ccc(OCCNC(C)C)cc1 [Example 30, 4'-[2-(Isopropylamino)ethoxy]-2,6-dimethoxybenzanilide]",10
10,"CCNCCOc1ccc(NC(=O)c2ccoc2)cc1.Cl [Example 25, 4'-[(2-Ethylamino)ethoxy]-3-furanilide Hydrochloride]",10
11,"CCNCCOc1ccc(NC(=O)c2ccoc2)cc1OC.Cl [Example 56, 4'-[2-(Ethylamino)ethoxy]-3'-methoxy-3-furanilide Hydrochloride]",10
12,"COCCNCCOc1ccc(NC(=O)CCOC)cc1.Cl [Example 44, 4'-[2-[(2-Methoxyethyl)amino]ethoxy]-3-methoxy propananilide Hydrochloride]",10
13,"CCCN(CCC)CCOc1ccc(NC(=O)c2c(C)cccc2C)cc1 [Example 14, 4'-[2-(Dipropylamino)ethoxy]-2,6-dimethylbenzanilide]",3
14,"CCN(CC)CCOc1ccc(NC(=O)c2c(OC)cccc2OC)c(C)c1 [Example 73, 4'-[2-(Diethylamino)ethoxy]-2-dimethoxy-2'-methyl Benzanilide]",3
15,"CCOCCNCCOc1ccc(NC(=O)c2c(OC)cccc2OC)cc1 [Example 46, 4'-[2-[(2-Ethoxyethyl)amino]ethoxy]-2,6-dimethoxy Benzanilide]",10
16,"CCNCCOc1ccc(NC(=O)C2CCOC2)cc1.Cl (centres unmarked) [Example 23, 4'-[(2-Ethylamino)ethoxy]-2,3,4,5-tetrahydro-3-furanilide Hydrochloride]",3
17,"Cc1cc(NC(=O)c2ccoc2)cc(C)c1OCCNC(C)C.Cl [Example 87, 4'-[2-(Isopropylamino)ethoxy]-3',5'-dimethyl-3-furanilide Hydrochloride]",10
18,"COc1cccc(OC)c1C(=O)Nc1ccc(OCCN)cc1.Cl [Example 1, 4'-(2-aminoethoxy)-2,6-dimethoxybenzanilide Hydrochloride]",10
19,"CC(C)NCCOc1ccc(NC(=O)c2ccccc2NS(C)(=O)=O)cc1.Cl [Example 29, 4'-[2-(Isopropylamino)ethoxy]-2-(methanesulfonamido) benzanilide Hydrochloride]",0.3
20,"CCN(CC)CCOc1ccc(NC(=O)c2ccccc2NS(=O)(=O)CC)cc1.Cl [Example 10, 4'-[2-(Diethylamino)ethoxy]-2-(ethanesulfon amido)benzanilide Hydrochloride]",3
21,"CCN(CC)CCOc1ccc(NC(=O)c2c(OC)cccc2OC)cc1.Cl [Example 2, 4'-[2-(diethylamino)ethoxy]-2,6-dimethoxybenzanilide Hydrochloride]",10

# Same assay, conditions: intravenous, anesthetized dogs, as hydrochloride
row,Compound,minimum dose level which suppresses atrial fibrillation [mg/kg]
1,"4'-[2-(Dimethylamino)ethoxy]-2,6-diethylbenzanilide [Example 7]",3.0
